In patent US9556179B2 (BRISTOL-MYERS SQUIBB COMPANY, priority 2012, dated 2017):

How the values were obtained:
[1] = molecular target: CK1ε (Homo sapiens (Human), UniProt P49674); test: CK1ε kinase assay (Caliper LABCHIP electrophoretic separation of fluoresceinated peptide substrate and product); type: biochemical; details: 200 pM enzyme, 50 μM ATP, 22 hours at room temperature
Method in brief: (§1)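 Compounds, taken from 10 mM DMSO stocks, are titrated at eleven concentrations. Kinase reactions proceed for 22 hours at room temperature and are quenched with EDTA. Substrate and product are resolved electrophoretically, and IC50 values are fitted by non-linear regression.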

[2] = molecular target: CK1δ (Homo sapiens (Human), UniProt P48730); test: CK1δ kinase assay (Caliper LABCHIP electrophoretic separation of fluoresceinated peptide substrate and product); type: biochemical; details: 200 pM enzyme, 50 μM ATP, 22 hours at room temperature
Chain of CK1δ (P48730 whole entry): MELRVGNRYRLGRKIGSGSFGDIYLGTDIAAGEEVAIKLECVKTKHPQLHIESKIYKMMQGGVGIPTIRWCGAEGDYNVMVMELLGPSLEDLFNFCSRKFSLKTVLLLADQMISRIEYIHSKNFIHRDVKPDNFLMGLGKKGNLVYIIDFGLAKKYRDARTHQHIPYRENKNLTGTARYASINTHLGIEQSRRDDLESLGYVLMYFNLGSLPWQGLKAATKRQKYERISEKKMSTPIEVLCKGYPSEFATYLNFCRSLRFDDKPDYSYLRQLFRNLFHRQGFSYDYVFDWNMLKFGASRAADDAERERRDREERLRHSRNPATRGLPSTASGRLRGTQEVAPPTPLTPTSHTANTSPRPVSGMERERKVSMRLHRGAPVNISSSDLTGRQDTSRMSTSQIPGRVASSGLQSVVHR
Method in brief: as §1

Chain of CK1ε (P49674 whole entry): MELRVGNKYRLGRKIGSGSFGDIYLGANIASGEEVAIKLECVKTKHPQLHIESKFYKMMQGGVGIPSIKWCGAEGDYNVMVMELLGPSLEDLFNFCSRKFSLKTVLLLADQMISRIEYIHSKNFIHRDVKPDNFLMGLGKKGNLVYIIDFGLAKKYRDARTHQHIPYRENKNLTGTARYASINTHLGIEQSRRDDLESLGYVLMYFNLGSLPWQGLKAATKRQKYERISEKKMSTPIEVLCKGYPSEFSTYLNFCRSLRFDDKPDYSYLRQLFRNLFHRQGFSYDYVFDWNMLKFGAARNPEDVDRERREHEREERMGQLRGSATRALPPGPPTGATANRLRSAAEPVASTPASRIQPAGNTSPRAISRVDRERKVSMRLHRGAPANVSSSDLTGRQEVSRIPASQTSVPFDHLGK

Structure (SMILES) | IC50 [1] [nM] | IC50 [2] [nM]
O=C(Nc1cn2nc(-c3c(-c4ccc(F)cc4)ncn3C3CCN(CCC(F)(F)F)CC3)ccc2n1)c1cncs1 [Compound 115, N-(6-(4-(4-fluorophenyl)-1-(1-(3,3,3-trifluoropropyl)piperidin-4-yl)-1H-imidazol-5-yl)imidazo[1,2-b]pyridazin-2-yl)thiazole-5-carboxamide] | 3.88 | 0.159
CN1CCN(c2ccc3nc(-c4ccc(F)cc4)c(-c4ccc5nc(NC(=O)c6ccncc6)cn5n4)n3n2)CC1 [Compound 223, N-(2-(4-fluorophenyl)-6-(4-methylpiperazin-1-yl)-[3,6′-biimidazo[1,2-b]pyridazin]-2′-yl)isonicotinamide] | 10.1 | 6.85
CSCCCN1CCC(n2cnc(-c3ccc(F)cc3)c2-c2ccc3nc(NC(=O)c4ccnc(F)c4)cn3n2)CC1 [Compound 26, 2-fluoro-N-(6-(4-(4-fluorophenyl)-1-(1-(3-(methylthio)propyl)piperidin-4-yl)-1H-imidazol-5-yl)imidazo[1,2-b]pyridazin-2-yl)isonicotinamide] | 2.23 | 0.449
O=C(Nc1cn2nc(-c3c(-c4ccc(F)cc4)nc4ccccn34)ccc2n1)c1ccnc2[nH]cnc12 [Compound 213, N-(6-(2-(4-fluorophenyl)imidazo[1,2-a]pyridin-3-yl)imidazo[1,2-b]pyridazin-2-yl)-3H-imidazo[4,5-b] pyridine-7-carboxamide] | 17.2 | 1.61
O=C(Nc1cn2nc(-c3c(-c4ccc(F)cc4)nc(C4CC4)n3C3CCNCC3)ccc2n1)c1cccc(-c2cccnc2)c1 [Compound 135, N-(6-(2-cyclopropyl-4-(4-fluorophenyl)-1-(piperidin-4-yl)-1H-imidazol-5-yl)imidazo[1,2-b]pyridazin-2-yl)-3-(pyridin-3-yl)benzamide] | 2.6 | 0.745
Cn1cc(Cn2cnc(-c3ccc(F)cc3)c2-c2ccc3nc(NC(=O)c4ccnc(F)c4)cn3n2)cn1 [Compound 259, 2-fluoro-N-(6-(4-(4-fluorophenyl)-1-((1-methyl-1H-pyrazol-4-yl)methyl)-1H-imidazol-5-yl)imidazo[1,2-b]pyridazin-2-yl) isonicotinamide] | 3.17 | 0.314
N#CCCN1CCC(n2c(C3CC3)nc(-c3ccc(F)cc3)c2-c2ccc3nc(NC(=O)c4ccnc(F)c4)cn3n2)CC1 [Compound 122, N-(6-(1-(1-(2-cyanoethyl)piperidin-4-yl)-2-cyclopropyl-4-(4-fluorophenyl)-1H-imidazol-5-yl)imidazo[1,2-b]pyridazin-2-yl)-2-fluoroisonicotinamide] | 2.86 | 0.446
CN1CC(n2cnc(-c3ccc(F)cc3)c2-c2ccc3nc(NC(=O)c4ccnc(F)c4)cn3n2)C1 [Compound 149, 2-fluoro-N-(6-(4-(4-fluorophenyl)-1-(1-methylazetidin-3-yl)-1H-imidazol-5-yl)imidazo[1,2-b]pyridazin-2-yl)isonicotinamide] | 2.84 | 2.19
Cc1nc(-c2ccc(F)cc2)c(-c2ccc3nc(NC(=O)c4ccnc(F)c4)cn3n2)n1C1CCN(C(=O)c2ccsn2)CC1 [Compound 147, 2-fluoro-N-(6-(4-(4-fluorophenyl)-1-(1-(isothiazole-3-carbonyl)piperidin-4-yl)-2-methyl-1H-imidazol-5-yl)imidazo[1,2-b]pyridazin-2-yl)isonicotinamide] | 4.9 | 0.529
O=C(Nc1cn2nc(-c3c(-c4ccc(F)cc4)ncn3C3CCN(C[C@@H](O)C(F)(F)F)CC3)ccc2n1)c1ccnc(F)c1 [Compound 37, (R)-2-fluoro-N-(6-(4-(4-fluorophenyl)-1-(1-(3,3,3-trifluoro-2-hydroxypropyl)piperidin-4-yl)-1H-imidazol-5-yl)imidazo[1,2-b]pyridazin-2-yl)isonicotinamide] | 1.27 | 0.296
CC(C)(O)C(=O)N1CCn2c(nc(-c3ccc(F)cc3)c2-c2ccc3nc(NC(=O)c4ccnc(F)c4)cn3n2)C1 [Compound 470, 2-Fluoro-N-(6-(2-(4-fluorophenyl)-7-(2-hydroxy-2-methylpropanoyl)-5,6,7,8-tetrahydroimidazo[1,2-a]pyrazin-3-yl)imidazo[1,2-b]pyridazin-2-yl)isonicotinamide] | 8.1 | 1.1
Cc1nc(-c2ccc(F)cc2)c(-c2ccc3nc(NC(=O)[C@@H]4CC(F)(F)CN4)cn3n2)n1C [Compound 316, (S)-4,4-difluoro-N-(6-(4-(4-fluorophenyl)-1,2-dimethyl-1H-imidazol-5-yl)imidazo[1,2-b]pyridazin-2-yl)pyrrolidine-2-carboxamide] | 39.4 | 3.09
Cc1nn(C)cc1CN1CCC(n2cnc(-c3ccc(F)cc3)c2-c2ccc3nc(NC(=O)c4ccnc(F)c4)cn3n2)CC1 [Compound 21] | 5.56 | 0.17
O=C(Nc1cn2nc(-c3c(-c4ccc(F)cc4)nc4ccccn34)ccc2n1)c1cccc(-c2cccnc2)c1 [Compound 204, N-(6-(2-(4-fluorophenyl)imidazo[1,2-a]pyridin-3-yl)imidazo[1,2-b]pyridazin-2-yl)-3-(pyridin-3-yl)benzamide] | 1.83 | 2.09
COC(=O)N1CCn2c(nc(-c3ccc(F)cc3)c2-c2ccc3nc(NC(=O)c4ccnc(F)c4)cn3n2)C1 [Compound 474, Methyl 3-(2-(2-fluoroisonicotinamido)imidazo[1,2-b]pyridazin-6-yl)-2-(4-fluorophenyl)-5,6-dihydroimidazo[1,2-a]pyrazine-7(8H)-carboxylate] | 9.3 | 1
O=C(Nc1cn2nc(-c3c(-c4ccc(F)cc4)ncn3C3CCN(C(=O)c4cnon4)CC3)ccc2n1)c1ccnc(F)c1 [Compound 14, N-(6-(1-(1-(1,2,5-oxadiazole-3-carbonyl)piperidin-4-yl)-4-(4-fluorophenyl)-1H-imidazol-5-yl)imidazo[1,2-b]pyridazin-2-yl)-2-fuoroisonicotinamide] | 3.91 | 0.624
O=C(Nc1cn2nc(-c3c(-c4ccc(F)cc4)ncn3CCc3cn[nH]c3)ccc2n1)c1ccnc(F)c1 [Compound 265] | 0.719 | 0.147
O=C(Nc1cn2nc(-c3c(-c4ccc(F)cc4)nc4ccc(N5CCOCC5)nn34)ccc2n1)c1ccncc1 [Compound 226, N-(2-(4-fluorophenyl)-6-morpholino-[3,6′-biimidazo[1,2-b]pyridazin]-2′-yl)isonicotinamide] | 10.1 | 4.94
O=C(Nc1cn2nc(-c3c(-c4ccc(F)cc4)ncn3C3CCN(Cc4c[nH]cn4)CC3)ccc2n1)c1ccnc(F)c1 [Compound 22] | 1.29 | 0.101
O=C(Nc1cn2nc(-c3c(-c4ccc(F)cc4)nc4n3CCCC4)ccc2n1)c1ccnc(N2CCOCC2)c1 [Compound 443, N-(6-(2-(4-Fluorophenyl)-5,6,7,8-tetrahydroimidazo[1,2-a]pyridin-3-yl)imidazo[1,2-b]pyridazin-2-yl)-2-morpholinoisonicotinamide] | 2.7 | 0.4
Cc1nc(-c2ccc(F)cc2)c(-c2ccc3nc(NC(=O)c4ccc(F)nc4)cn3n2)n1C [Compound 321, 6-fluoro-N-(6-(4-(4-fluoro-phenyl)-1,2-dimethyl-1H-imidazol-5-yl)imidazo[1,2-b]pyridazin-2-yl)nicotinamide] | 1.97 | 0.152
O=C(Cn1ccnc1)Nc1cn2nc(-c3c(-c4ccc(F)cc4)nc4ccccn34)ccc2n1 [Compound 214, N-(6-(2-(4-fluorophenyl)imidazo[1,2-a]pyridin-3-yl)imidazo[1,2-b]pyridazin-2-yl)-2-(1H-imidazol-1-yl) acetamide] | 22.3 | 2.19
Cc1nc(-c2ccc(F)cc2)c(-c2ccc3nc(NC(=O)c4ccncc4)cn3n2)[nH]1 [Compound 228, N-(6-(4-(4-fluorophenyl)-2-methyl-1H-imidazol-5-yl)imidazo[1,2-b]pyridazin-2-yl)isonicotinamide] | 1.82 | 2.07
Nc1cc(C(=O)Nc2cn3nc(-c4c(-c5ccc(F)cc5)nc5ccccn45)ccc3n2)ccn1 [Compound 194, 2-amino-N-(6-(2-(4-fluorophenyl)imidazo[1,2-a]pyridin-3-yl)imidazo[1,2-b]pyridazin-2-yl) isonicotinamide] | 13.8 | 0.715
CC(C)(C)C(=O)Nc1cc(C(=O)Nc2cn3nc(-c4c(-c5ccc(F)cc5)nc5ccccn45)ccc3n2)ccn1 [Compound 192, N-(6-(2-(4-fluorophenyl)imidazo[1,2-a]pyridin-3-yl)imidazo[1,2-b]pyridazin-2-yl)-2-pivalamidoisonicotinamide] | 1.06 | 0.096
O=C(Nc1cn2nc(-c3c(-c4ccc(F)cc4)ncn3C3CCN(CCCF)CC3)ccc2n1)c1cc(F)nc(F)c1 [Compound 88, 2,6-difluoro-N-(6-(4-(4-fluorophenyl)-1-(1-(3-fluoropropyl)piperidin-4-yl)-1H-imidazol-5-yl)imidazo[1,2-b]pyridazin-2-yl)isonicotinamide] | 2.56 | 0.38
O=C(Nc1cn2nc(-c3c(-c4ccc(F)cc4)ncn3C3CCN(Cc4ccon4)CC3)ccc2n1)c1ccnc(F)c1 [Compound 12] | 0.283 | 0.847
Cc1nc(-c2ccc(F)cc2)c(-c2ccc3nc(NC(=O)[C@@H]4CCCN4)cn3n2)n1C [Compound 315, (S)-N-(6-(4-(4-fluorophenyl)-1,2-dimethyl-1H-imidazol-5-yl)imidazo[1,2-b]pyridazin-2-yl)pyrrolidine-2-carbox-amide] | 375 | 19.8
O=C(Nc1cn2nc(-c3c(-c4ccc(F)cc4)ncn3C3CCN(CCC(F)(F)F)CC3)ccc2n1)c1ccncc1 [Compound 4, N-(6-(4-(4-fluorophenyl)-1-(1-(3,3,3-trifluoropropyl)piperidin-4-yl)-1H-imidazol-5-yl)imidazo[1,2-b]pyridazin-2-yl)isonicotinamide] | 2.25 | 0.302
